For this experiment, the system named is B cell receptor-mediated activation of B cells in human blood. Briefly: Inhibition of B cell activation in whole blood measured by CD69 expression. The experiment is classed as cell-based. Conditions: anti-IgM stimulation, 20 hours, CD69-positive cells that are also CD20-positive, read-out: HWB IC50. How it is done: A procedure to test the ability of Btk inhibitors to suppress B cell receptor-mediated activation of B cells in human blood is as follows:
Human whole blood (HWB) is obtained from healthy volunteers, with the following restrictions: 24 hr drug-free, non-smokers. Blood is collected by venipuncture into Vacutainer tubes anticoagulated with sodium heparin. Test compounds are diluted to ten times the desired starting drug concentration in PBS (20×), followed by three-fold serial dilutions in 10% DMSO in PBS to produce a nine point dose-response curve. 5.5 μl of each compound dilution is added in duplicate to a 2 ml 96-well V bottom plate (Analytical Sales and Services, #59623-23); 5.5 μl of 10% DMSO in PBS is added to control and no-stimulus wells. HWB (100 μl) is added to each well, and after mixing the plates are incubated at 37 C, 5% CO2, 100% humidity for 30 minutes. Goat F(ab′)2 anti-human IgM (Southern Biotech, #2022-14) (10 μl of a 500 μg/ml solution, 50 μg/ml final concentration) is added to each well (except the no-stimulus wells) with mixing and the plates are incubated for an additional 20 hours.
At the end of the 20 hour incubation, samples are incubated with florescent-probe-labeled anti-bodies (15 μl PE Mouse anti-Human CD20, BD Pharmingen, #555623, and/or 20 ul APC Mouse anti-Human CD69, BD Pharmingen #555533) for 30 minutes, at 37 C, 5% CO2, 100% humidity. Included are induced control, unstained and single stains for compensation adjustments and initial voltage settings. Samples are then lysed with 1 ml of 1× Pharmingen Lyse Buffer (BD Pharmingen #555899), and plates are centrifuged at 1800 rpm for 5 minutes. Supernatants are removed via suction and the remaining pellets are lysed again with another 1 ml of 1× Pharmingen Lyse Buffer, and plates are spun down as before. Supernatants are aspirated and remaining pellets are washed in FACs buffer (PBS+1% FBS). After a final spin, the supernantants are removed and pellets are resuspended in 180 μl of FACs buffer. Samples are transferred to a 96 well plate suitable to be run on the HTS 96 well system on the BD LSR II flow cytometer.
Using appropriate excitation and emission wavelengths for the fluorophores used, data are acquired and percent positive cell values are obtained using Cell Quest Software. Results are initially analyzed by FACS analysis software (Flow Jo). […] The IC50 values are calculated using XLfit software version 3, equation 201.

`CC(C)(C)c1cc(F)c2c(=O)n(-c3cccc(-c4cc(Nc5ccc(C(=O)N6CCOCC6)cn5)c5nccn5c4)c3CO)ncc2c1` [Compound I-10, 6-tert-Butyl-8-fluoro-2-(2-hydroxymethyl-3-{8-[5-(morpholine-4-carbonyl)-pyridin-2-ylamino]-imidazo[1,2-a]pyridin-6-yl}-phenyl)-2H-phthalazin-1-one]: the IC50 came to 142 nM.
As to `CN1CCN(Cc2ccc(Nc3cc(-c4cccc(-n5ncc6cc(C(C)(C)C)cc(F)c6c5=O)c4CO)nn4ccnc34)nc2)CC1` [Compound I-4, 6-tert-Butyl-8-fluoro-2-(2-hydroxymethyl-3-{8-[5-(4-methyl-piperazin-1-ylmethyl)-pyridin-2-ylamino]-imidazo[1,2-b]pyridazin-6-yl}-phenyl)-2H-phthalazin-1-one], the half-maximal inhibitory concentration (IC50) came out at 13 nM.
Consider `CC(C)N1CCN(c2ccc(Nc3cc(-c4cccc(-n5ncc6cc(C(C)(C)C)cc(F)c6c5=O)c4CO)nn4ccnc34)nc2)CC1` [Compound I-3, 6-tert-Butyl-8-fluoro-2-(2-hydroxymethyl-3-{8-[5-(4-isopropyl-piperazin-1-yl)-pyridin-2-ylamino]-imidazo[1,2-b]pyridazin-6-yl}-phenyl)-2H-phthalazin-1-one], for which the concentration for half-maximal inhibition (IC50) is 40 nM.
Regarding `CC(C)(C)c1cc(F)c2c(=O)n(-c3cccc(-c4cc(Nc5ccc(C(=O)N6CCOCC6)cn5)c5ncccc5c4)c3CO)ncc2c1` [Compound I-13, 6-tert-Butyl-8-fluoro-2-(2-hydroxymethyl-3-{8-[5-(morpholine-4-carbonyl)-pyridin-2-ylamino]-quinolin-6-yl}-phenyl)-2H-phthalazin-1-one], the IC50 was more than 5000 nM.
For `CC(C)(C)c1cc(F)c2c(=O)n(-c3cccc(-c4cc(Nc5ccc(C(=O)N6CCOCC6)cn5)ncn4)c3CO)ncc2c1` [Compound I-12, 6-tert-Butyl-8-fluoro-2-(2-hydroxymethyl-3-{6-[5-(morpholine-4-carbonyl)-pyridin-2-ylamino]-pyrimidin-4-yl}-phenyl)-2H-phthalazin-1-one], the IC50 was found to be 2500 nM.
`CC(C)(C)c1cc(F)c2c(=O)n(-c3cccc(-c4cn5ccnc5c(Nc5ccc(C(=O)N6CCOCC6)cc5)n4)c3CO)ncc2c1` [Compound I-7, 6-tert-Butyl-8-fluoro-2-(2-hydroxymethyl-3-{8-[4-(morpholine-4-carbonyl)-phenylamino]-imidazo[1,2-a]pyrazin-6-yl}-phenyl)-2H-phthalazin-1-one]: the IC50 came out at 112 nM.
Turning to `CN1CCC(c2ccc(Nc3cc(-c4cccc(-n5ncc6cc(C(C)(C)C)cc(F)c6c5=O)c4CO)cn4ccnc34)nc2)CC1` [Compound I-11, 6-tert-Butyl-8-fluoro-2-{2-hydroxymethyl-3-[8-(1′-methyl-1′,2′,3′,4′,5′,6′-hexahydro-[3,4′]bipyridinyl-6-ylamino)-imidazo[1,2-a]pyridin-6-yl]-phenyl}-2H-phthalazin-1-one], the IC50 worked out at 72 nM.
The figure for `CC(C)(C)c1cc(F)c2c(=O)n(-c3cccc(-c4cc(Nc5ccc(C(=O)N6CCOCC6)cn5)c5nccn5n4)c3CO)ncc2c1` [Compound I-2, 6-tert-Butyl-8-fluoro-2-(2-hydroxymethyl-3-{8-[5-(morpholine-4-carbonyl)-pyridin-2-ylamino]-imidazo[1,2-b]pyridazin-6-yl}-phenyl)-2H-phthalazin-1-one] is 77 nM.
The figure for `CC(C)(C)c1cc(F)c2c(=O)n(-c3cccc(-c4cc(Nc5ccc(C(=O)N6CCOCC6)cn5)c5ncnn5c4)c3CO)ncc2c1` [Compound I-1, 6-tert-Butyl-8-fluoro-2-(2-hydroxymethyl-3-{8-[5-(morpholine-4-carbonyl)-pyridin-2-ylamino]-[1,2,4]triazolo[1,5-a]pyridin-6-yl}-phenyl)-2H-phthalazin-1-one] is 350 nM.
`CN1CCC(c2ccc(Nc3nc(-c4cccc(-n5ncc6cc(C(C)(C)C)cc(F)c6c5=O)c4CO)cn4ccnc34)cc2)CC1` [Compound I-8, 6-tert-Butyl-8-fluoro-2-(2-hydroxymethyl-3-{8-[4-(1-methyl-piperidin-4-yl)-phenylamino]-imidazo[1,2-a]pyrazin-6-yl}-phenyl)-2H-phthalazin-1-one]: the IC50 is 2270 nM.
To `CC(C)(C)c1cc(F)c2c(=O)n(-c3cccc(-c4cc(Nc5ccc(C(=O)N6CCOCC6)cc5)c5nccn5c4)c3CO)ncc2c1` [Compound I-9, 6-tert-Butyl-8-fluoro-2-(2-hydroxymethyl-3-{8-[4-(morpholine-4-carbonyl)-phenylamino]-imidazo[1,2-a]pyridin-6-yl}-phenyl)-2H-phthalazin-1-one] belongs 1040 nM; to `CC(C)(C)c1cc(F)c2c(=O)n(-c3cccc(-c4ccnc(Nc5ccc(C(=O)N6CCOCC6)cn5)c4)c3CO)ncc2c1` [Compound I-6, 6-tert-Butyl-8-fluoro-2-(2-hydroxymethyl-3-{2-[5-(morpholine-4-carbonyl)-pyridin-2-ylamino]-pyridin-4-yl}-phenyl)-2H-phthalazin-1-one], 480 nM.
The figure for `CC(C)(C)c1cc(F)c2c(=O)n(-c3cccc(-c4cnnc(Nc5ccc(C(=O)N6CCOCC6)cn5)c4)c3CO)ncc2c1` [Compound I-5, 6-tert-Butyl-8-fluoro-2-(2-hydroxymethyl-3-{6-[5-(morpholine-4-carbonyl)-pyridin-2-ylamino]-pyridazin-4-yl}-phenyl)-2H-phthalazin-1-one] is 890 nM.

The term IC50 denotes the point on the concentration scale where inhibition reaches its midpoint.
